Experimental data published in ChEMBL document CHEMBL1142607, “Haterumadysins A-D, sesquiterpenes from the Okinawan marine sponge Dysidea chlorea” (2006).
Active and inactive are the calls of the source. No cut-off for these calls is given here.

Experiments:
Assay type in all cases: functional
Echinoidea [1] = test: (§1) Inhibition of cell division in fertilized sea urchin egg at 1 ppm
[2] = as §1; conditions: Echinoidea
Echinoidea [3] = test: Inhibition of cell division in fertilized sea urchin egg at 3 ppm

Compound	Activity (Echinoidea [1])	other results
CC(=O)O[C@@H]1OC=C[C@]12C=C1C=C(C)CC[C@H]1C2(C)C	Active	–
CC(=O)O[C@@H]1OC=C[C@]12C[C@H]1C=C(C)CC[C@H]1C2(C)C [SPIRODYSIN]	–	inhibition at 1 ppm [2]: 90%
CC1=C[C@@H]2C[C@]3(C=COC3=O)C(C)(C)[C@@H]2CC1	–	Activity (Echinoidea [3]): inactive
CC(=O)O[C@@H]1OC=C[C@]12Cc1cc(C)ccc1C2(C)C	Active	–
CC(=O)O[C@@H]1OC=C[C@]12CC1=C[C@@](C)(OO)CC[C@H]1C2(C)C	Active	–
CC(=O)O[C@@H]1OC=C[C@]12CC1=C[C@](C)(OO)CC[C@H]1C2(C)C	Active	–
